From patent US8722736B2, “Multi-dose concentrate esmolol with benzyl alcohol” (Baxter International Inc., priority 2007, dated 2014)

Test: pH dependence of esmolol degradation
Format: physicochemical
From the text: The concentrate of present invention can also include a pharmaceutically acceptable buffer to aid in maintaining the pH in a range of from about 3.5 to about 7.0. Preferably, the pH is maintained between about 4.5 and about 5.5, more preferably between 4.9 and 5.1. […] Suitable buffers are those buffers that provide sufficient buffering capacity at the desired pH range and are pharmaceutically acceptable for injection into a patient. Examples of buffers useful in the present invention include, but are not limited to, acetate, glutamate, citrate, tartrate, benzoate, lactate, gluconate, phosphate and glycine and conjugate acids thereof. The concentration of the buffer can be from about 0.005 to about 2 M. In a preferred embodiment, the buffering agent comprises a combination of sodium acetate and glacial acetic acid. A preferred combination of buffers can include sodium acetate at from about 0.005 to about 0.3 M and glacial acetic acid at from about 0.05 to about 0.3 M.

- pH at which esmolol is most stable: about 5.0
SMILES: COC(=O)CCc1ccc(OCC(O)CNC(C)C)cc1.Cl (stereo not shown) [esmolol, methyl3-[4-[2-hydroxy-3-(isopropylamino)propoxy]phenyl]propionate hydrochloride]
